How the values were obtained:
Type in all cases: cell-based
[1] = system: human squamous carcinoma cell line A431; test: Effect of Gefitinib, Elrotinib on proliferation of A431 cells stimulated with human HB-EGF; details: DAG 0.015%
Protocol: (§1) Each plate was cultured by being stood still in a CO2 incubator (37°C, 5% CO2). […] To the culture medium on days 4, 6 and 8 was added an ATP reagent (150 µL) (CellTiter-Glo (registered trade mark) Luminescent Cell Viability Assay, manufactured by Promega) to give a suspension, which was stood for about 10 min at room temperature, and the luminescence intensity (RLU value) was measured by FlexStation3 (manufactured by Molecular Devices), and the number of viable cells was measured by subtracting the luminescence value of the medium alone.

[2] = system: human lung cancer cell line A549; test: Effect of Gefitinib on proliferation of A549 cell stimulated with human HB-EGF; details: DAG 0.015%, day 6
Protocol: as §1, with “This aqueous solution was sterilized at 121°C for 20 min in an autoclave. […] Each” for “Each”, “day” for “days 4,”, “6” for “6 and 8”

[3] = system: human cervical cancer cell line HeLa; test: Comparison with single layer culture method in cell proliferation test using anticancer drug; details: day 4
Protocol: This aqueous solution was sterilized at 121°C for 20 min in an autoclave. […] Each plate was cultured by being stood still in a CO2 incubator (37°C, 5% CO2). […] The anticancer drug used was Adriamycin (manufactured by WAKO), Paclitaxel (manufactured by WAKO) or Mitomycin C (manufactured by WAKO). To the culture medium on day 4 was added an ATP reagent (150 µL) (CellTiter-Glo (registered trade mark) Luminescent Cell Viability Assay, manufactured by Promega) to give a suspension, which was stood for about 10 min at room temperature, and the luminescence intensity (RLU value) was measured by FlexStation3 (manufactured by Molecular Devices), and the number of viable cells was measured by subtracting the luminescence value of the medium alone. For WST-8 measurement, a WST-8 solution (manufactured by DOJINDO Laboratories, 15 µL) was added, the mixture was incubated at 37°C for 100 min, the absorbance at 450 nm was measured by an absorbance spectrometer (manufactured by Molecular Devices, SPECTRA MAX 190), and the number of viable cells was measured by subtracting the absorbance of the medium alone.

[4] = system: human cervical cancer cell line HeLa; test: Cell proliferation test using various anticancer drugs; details: DAG 0.030% medium; for cell density: 5 days later
Protocol: This aqueous solution was sterilized at 121°C for 20 min in an autoclave. […] The anticancer drug used was Adriamycin (manufactured by WAKO), Paclitaxel (manufactured by WAKO) or Mitomycin C (manufactured by WAKO).
Successively, this plate was cultured by being stood still in a CO2 incubator (37°C, 5% CO2) for 7 days. After culturing for 3, 5, 7 days, to the culture medium was added a WST-8 solution (manufactured by DOJINDO Laboratories, 20 µL), and the mixture was incubated at 37°C for 100 min. The absorbance at 450 nm was measured by an absorbance spectrometer (manufactured by Molecular Devices, SPECTRA MAX 190), and the number of viable cells was measured by subtracting the absorbance of the medium alone. The culture medium containing the cells after 5 days of culture was stirred with a pipette and the obtained stirred solution (20 µL) was mixed with Trypan Blue stain 0.4% (manufactured by Invitrogen, 20 µL) and the cell density was measured under a microscope.

[5] = system: human cervical cancer cell line HeLa; test: HeLa cell proliferation test using Trametinib and MK-2206; details: day 4 of the static culture
Protocol: (§2) This aqueous solution was sterilized at 121°C for 20 min in an autoclave. […] Each plate was cultured by being stood still in a CO2 incubator (37°C, 5% CO2). […] The anticancer drugs used were Trametinib (manufactured by Santa Cruz, MEK inhibitor) and MK-2206 (manufactured by Santa Cruz, Akt inhibitor). […]

[6] = system: human lung cancer cell line A549; test: A549 cell proliferation test using Trametinib and MK-2206; details: day 4 of the static culture
Protocol: as §2

[7] = drug 0.001 µM, deacylated gellan gum addition group (0.015%)
[8] = drug 0.001 µM, single layer culture group
[9] = drug 0.003 µM, deacylated gellan gum addition group (0.015%)
[10] = drug 0.003 µM, single layer culture group
[11] = drug 0.01 µM, deacylated gellan gum addition group (0.015%)
[12] = drug 0.01 µM, single layer culture group
[13] = drug 0.03 µM, deacylated gellan gum addition group (0.015%)
[14] = drug 0.03 µM, single layer culture group

C#Cc1cccc(Nc2ncnc3cc(OCCOC)c(OCCOC)cc23)c1 [Elrotinib]
% Control value of the RLU value (ATP measurement) ([1]; drug 0.1 µM, day 4): 88 % Control
% Control value of the RLU value (ATP measurement) ([1]; drug 0.1 µM, day 8): 56 % Control
% Control value of the RLU value (ATP measurement) ([1]; drug 0.3 µM, day 4): 89 % Control
% Control value of the RLU value (ATP measurement) ([1]; drug 0.3 µM, day 8): 27 % Control
% Control value of the RLU value (ATP measurement) ([1]; drug 1 µM, day 4): 21 % Control
% Control value of the RLU value (ATP measurement) ([1]; drug 1 µM, day 8): 4 % Control
% Control value of the RLU value (ATP measurement) ([1]; drug 3 µM, day 4): 4 % Control
% Control value of the RLU value (ATP measurement) ([1]; drug 3 µM, day 8): 0 % Control

COc1cc2ncnc(Nc3ccc(F)c(Cl)c3)c2cc1OCCCN1CCOCC1 [Gefitinib]
% Control value of the RLU value (ATP measurement) ([2]; 0.1 µM, HB-EGF 100 ng/ml): 91 % Control
% Control value of the RLU value (ATP measurement) ([2]; 0.1 µM, HB-EGF no addition): 89 % Control
% Control value of the RLU value (ATP measurement) ([2]; 0.3 µM, HB-EGF 100 ng/ml): 74 % Control
% Control value of the RLU value (ATP measurement) ([2]; 0.3 µM, HB-EGF no addition): 84 % Control
% Control value of the RLU value (ATP measurement) ([2]; 1 µM, HB-EGF 100 ng/ml): 59 % Control
% Control value of the RLU value (ATP measurement) ([2]; 1 µM, HB-EGF no addition): 77 % Control
% Control value of the RLU value (ATP measurement) ([2]; 3 µM, HB-EGF 100 ng/ml): 53 % Control
% Control value of the RLU value (ATP measurement) ([2]; 3 µM, HB-EGF no addition): 69 % Control

CC(=O)O[C@H]1C(=O)[C@@]2(C)[C@H]([C@H](OC(=O)c3ccccc3)[C@]3(O)C[C@H](OC(=O)[C@H](O)[C@@H](NC(=O)c4ccccc4)c4ccccc4)C(C)=C1C3(C)C)[C@]1(OC(C)=O)CO[C@@H]1C[C@@H]2O [Paclitaxel]
% Control value of the RLU value (ATP measurement) [3, 7]: 107 % Control
% Control value of the absorbance at 450 nm (WST-8 measurement) [3, 7]: 125 % Control
% Control value of the RLU value (ATP measurement) [3, 8]: 95 % Control
% Control value of the absorbance at 450 nm (WST-8 measurement) [3, 8]: 99 % Control
% Control value of the RLU value (ATP measurement) [3, 9]: 34 % Control
% Control value of the absorbance at 450 nm (WST-8 measurement) [3, 9]: 33 % Control
% Control value of the RLU value (ATP measurement) [3, 10]: 36 % Control
% Control value of the absorbance at 450 nm (WST-8 measurement) [3, 10]: 32 % Control
% Control value of the RLU value (ATP measurement) [3, 11]: 18 % Control
% Control value of the absorbance at 450 nm (WST-8 measurement) [3, 11]: 5 % Control
% Control value of the RLU value (ATP measurement) [3, 12]: 10 % Control
% Control value of the absorbance at 450 nm (WST-8 measurement) [3, 12]: 10 % Control
% Control value of the RLU value (ATP measurement) [3, 13]: 17 % Control
% Control value of the absorbance at 450 nm (WST-8 measurement) [3, 13]: 3 % Control
% Control value of the RLU value (ATP measurement) [3, 14]: 4 % Control
% Control value of the absorbance at 450 nm (WST-8 measurement) [3, 14]: 5 % Control
cell density ([4]; drug 0.001 µM): 5.3 10^4 cells/mL
cell number (absorbance at 450 nm, WST-8) ([4]; drug 0.001 µM, day 3): 0.276
cell number (absorbance at 450 nm, WST-8) ([4]; drug 0.001 µM, day 5): 0.223
cell number (absorbance at 450 nm, WST-8) ([4]; drug 0.001 µM, day 7): 0.222
cell density ([4]; drug 0.01 µM): 1.6 10^4 cells/mL
cell number (absorbance at 450 nm, WST-8) ([4]; drug 0.01 µM, day 3): 0.019
cell number (absorbance at 450 nm, WST-8) ([4]; drug 0.01 µM, day 5): < 0
cell number (absorbance at 450 nm, WST-8) ([4]; drug 0.01 µM, day 7): < 0
cell density ([4]; drug 0.1 µM): 0.9 10^4 cells/mL
cell number (absorbance at 450 nm, WST-8) ([4]; drug 0.1 µM, day 3): < 0
cell number (absorbance at 450 nm, WST-8) ([4]; drug 0.1 µM, day 5): < 0
cell number (absorbance at 450 nm, WST-8) ([4]; drug 0.1 µM, day 7): < 0
cell density ([4]; drug 1 µM): 0.2 10^4 cells/mL
cell number (absorbance at 450 nm, WST-8) ([4]; drug 1 µM, day 3): < 0
cell number (absorbance at 450 nm, WST-8) ([4]; drug 1 µM, day 5): < 0
cell number (absorbance at 450 nm, WST-8) ([4]; drug 1 µM, day 7): < 0
% Control value of the RLU value (ATP measurement) [5, 7]: 104 % Control
% Control value of the RLU value (ATP measurement) [5, 8]: 89 % Control
% Control value of the RLU value (ATP measurement) [5, 9]: 46 % Control
% Control value of the RLU value (ATP measurement) [5, 10]: 15 % Control
% Control value of the RLU value (ATP measurement) [5, 11]: 5 % Control
% Control value of the RLU value (ATP measurement) [5, 12]: 2 % Control
% Control value of the RLU value (ATP measurement) [6, 7]: 93 % Control
% Control value of the RLU value (ATP measurement) [6, 8]: 81 % Control
% Control value of the RLU value (ATP measurement) [6, 9]: 52 % Control
% Control value of the RLU value (ATP measurement) [6, 10]: 31 % Control
% Control value of the RLU value (ATP measurement) [6, 11]: 32 % Control
% Control value of the RLU value (ATP measurement) [6, 12]: 16 % Control
